System: NK cell activity
Assay: NK cell activity in old dogs fed a diet fortified with lipoic acid
Type: in vivo
Conditions: old beagles (Group 3, average age 11.3 years), dry food fortified with 150 ppm lipoic acid on a dry matter basis, six weeks, versus baseline and young and old controls; FIG. 1
Text: The dogs are beagles and Group 1 consists of 10 beagles with the average age of 5.1 years old, Group 2 consists of 10 beagles with an average age of 11.8 years old, and Group 3 consists of 10 beagles with an average age of 11.3 years old. The dogs from all three groups are fed the controlled food for a two week period prior to intervention. […] During the two week period on the control, samples are taken from all dogs and chemical and biological analysis is completed on the samples to establish base line data. Then three groups of dogs eat their respective diets for a six week period of time and after this time period, samples are taken from all of the dogs in the study and chemical and biological analysis is completed on the samples. Baseline data is compared to the data taken at the end of the six week study.

## O=C(O)CCCC[C@@H]1CCSS1 (racemic) [lipoic acid]
  NK cell activity: increased NK cell activity

Source: patent US20070264287A1, “Methods for Increasing the Immune Response in an Animal” (priority 2004, published 2007)
